Source: patent US10548894B2, “Combination therapy” (Array BioPharma Inc., priority 2013, dated 2020)
pIC50: −log10 of the molar value.

Experiments:
Type in all cases: cell-based
[1] = system: MAPK and PIK3C signaling in SK-MEL-5 cells; assay: Western analysis of phosphorylated MEK1/2, ERK1/2 and AKT
Method: (§1) FIG. 4—The effect on signaling of combining the Compound of Formula (I) with the FGFR inhibitor Compound H and the FGFR ligand FGF2 in two BRAFV600E mutant melanoma-derived cell lines in vitro. Shown is western analysis of both phosphorylated and total AKT, ERK1/2, and MEK1/2 proteins isolated from (A) […] and (B) SK-MEL-5 cells following treatment with the Compound of Formula (I) (100 nM), FGF2 (100 ng/ml), and Compound H (1 uM). Cells were treated for 2 and 24 hours with agents singly and in combination as discussed in Example 5.
(§2) For Western analysis, cells were plated in 6-well (Costar, catalog number 3506) plates at a density of 5×10^5 cells per well in 2.0 ml of complete culture medium. Twelve to 24 hrs after plating, cells were treated with the various compounds, and in all experiments the Compound of Formula (I), Compound H, and FGF2 were used at final concentrations of 100 nM, 1.0 uM, and 100 ng/ml, respectively. Cells were harvested 2, and 24 hrs following the addition of compound in freshly prepared cell lysis buffer (Cell Signaling Technology Catalog number 9803); supplemented with both phosphatase (PhosStop, Roche Catalog number 04906845001) and protease inhibitors (Roche, catalog number 11697498001). Proteins from cell lysates were separated by electrophoresis though a NuPAGE 4-12% Bis-Tis midi gel (Novex, catalog number WG1402BX10), transferred to nitrocellulose membranes, which were subsequently incubated with antibodies from Cell Signaling Technology (Danvers, Mass., USA) recognizing p-AKT (S473, Catalog number 4058), total AKT (Catalog number 2920), p-ERK1/2 (T202/Y204, catalog number 9101), total ERK1/2 (catalog number 9107), p-MEK1/2 (S217/221, catalog number 9121) and β-actin (Ambion, catalog number AM4302). Western blots were visualized following incubation with IRDye 680RD Goat anti-Rabbit IgG (Li-Cor, Catalog number 926-68071) and IRDye 800 CW Goat anti-Mouse IgG (Li-Cor, Catalog number 926-32210) and scanning with an Odyssey Infrared Imager System (Li-Cor, Lincoln, Nebr., USA).
(§3) To investigate whether either restored MAPK or activated PIK3C signaling might underlie FGF2-mediated rescue the effects of FGF2 on MAPK and PIK3C signaling were examined via western-blot analysis of phosphorylated MEK1/2 (MAP2K1/2), ERK1/2 (MAPK1/2) and AKT1/2/3.

[2] = system: MAPK and PIK3C signaling in COLO 741 cells; assay: as above; conditions: for Phosphorylated levels of AKT: 100 nM
Method: as §1, §2, §3

[3] = system: A-375 cells; assay: Microscopy imaging assay (viable nuclei count), 72 h; conditions: Homo sapiens, A-375 parent, single agent
Method: (§4) Compound stocks are prepared in DMSO at a final concentration of 10 mM. Working stocks are serially diluted in the appropriate cell culture medium in 3-fold increments to achieve final assay concentrations ranging from 2.7 μM to 1.2 nM.
(§5) A-375 and WM-266-4 cells were purchased from American Type Culture Collection (ATCC). The A-375 cells were cultured in DMEM medium (ATCC) and the WM-266-4 cells were cultured in EMEM medium (ATCC) both supplemented with 10% fetal bovine serum (Gibco) and incubated at 37° C./5% CO2. The cell lines engineered to express commonly occurring alleles indicative of resistance were acquired from Novartis-Emeryville. These resistant models include, A-375 cells expressing mutant MEK1P124L, truncated p61-BRAFV600E, or mutant NRASQ61K, and WM-266-4 cells expressing mutant MEK1C121S, truncated p61-BRAFV600E, or mutant NRASQ61K. These cells were cultured in the appropriate parental medium with selection marker G418 and in the presence of 5 uM LFE158 (MEK mutants) or LIH720 (truncated p61-BRAFV600E).
(§6) For screening, cells were seeded in 80 ul of medium in 384-well plates (Thermo Scientific, cat#4332) at 500 (A-375) or 750 (WM-266-4) cell densities per well using a MultiDrop Combi (Thermo-Fisher) with an 8-channel standard cassette. To promote an even distribution of cells across the entire well, cells were briefly centrifuged at 1000 RPM and incubated at room temperature 30 minutes. All plates were incubated at 37° C., 5% CO2 for 24 h prior to compound addition. Compound stock was freshly prepared in the appropriate culture medium, and added using a PAA robot equipped with a 200n1 pin tool. In a minimum of three replicate wells, single agent and combination effects after 72 hours, were assessed by both quantification of cellular ATP levels via Cell Titer Glo (Promega) according to the manufacturer's protocol and by microscopy imaging. For imaging, cells were fixed to the plates and permeabilized with a solution of 10% PFA, 0.3% TX-100 in PBS via a WellMate dispenser with controlled dispensing speeds. Cell nuclei were stained with Hoechst 33342 (H3570, Invitrogen), and all necessary washing steps were performed by a BioTek washer.
(§7) An automated image analysis pipeline was established using custom-made scripts in the open-source, statistical programming language R, and functions of the BioConductor package EBImage. The goal was to quantify the number of viable nuclei (cells) per well as an approximation for cell viability. The pipeline was comprised of seven steps: (I.) smoothing of the image to reduce the number of intensity peaks, (II.) application of a thresholding function to separate the foreground (signal) from the background (noise), (III.) identification of local maxima in the foreground that serve as seeds for the nuclei, (IV.) filtering of local maxima in close proximity, (V.) propagation of the nuclei from remaining local maxima, (VI.) and extraction of object features from the propagated nuclei (numbers of nuclei, size features and intensity features). As a last step (VII.), to exclude debris (e.g. fragmented nuclei) from counting, objects identified in DMSO- and Staurosporin-treated wells were used to obtain feature distributions for viable and fragmented nuclei, respectively. These were used to set cut-offs differentiating between viable and fragmented nuclei. The number of fragmented nuclei was subtracted from the total number of identified objects and the result was reported as final count for that well.
(§8) Data comprised triplicate measurements for each treatment (compound) condition, 42 replicates of DMSO-treated wells, and duplicates of Staurosporin-treated wells. The data was normalized to the median of the DMSO measurements and summarized by calculating the median of the triplicates. Data was imported into Chalice to calculate compound synergies.

[4] = system: A-375 cells expressing mutant MEK1P124L; assay: as above; conditions: Homo sapiens, A-375 MEK1P124L, single agent
Method: as §4, §5, §6, §7, §8

COC(=O)N[C@@H](C)CNc1nccc(-c2cn(C(C)C)nc2-c2cc(Cl)cc(NS(C)(=O)=O)c2F)n1 [Compound of Formula (I)]
MAPK signaling (phosphorylated MEK and ERK levels) ([1]; SK-MEL-5, 2 and 24 hours, no FGF2, Formula (I) 100 nM, Compound H 1.0 uM): marked suppression of MAPK signaling
Phosphorylated levels of AKT ([1]; SK-MEL-5, 2 hours, 100 nM): unaffected
levels of phosphorylated MEK and ERK ([1]; SK-MEL-5, with FGF2 100 ng/ml, 24 hrs): largely, although not completely, restored
changes in signaling relative to Compound of Formula (I) alone ([1]; SK-MEL-5, with FGF2 100 ng/ml, two hours): minimal changes
MAPK signaling (phosphorylated MEK and ERK levels) ([2]; COLO 741, 2 and 24 hours, no FGF2, Formula (I) 100 nM, Compound H 1.0 uM): marked suppression of MAPK signaling
Phosphorylated levels of AKT ([2]; COLO 741, 2 hours): unaffected
Phosphorylated levels of AKT ([2]; COLO 741, 24 hrs): modest decreases
levels of phosphorylated MEK and ERK ([2]; COLO 741, with FGF2 100 ng/ml, 24 hrs): largely, although not completely, restored
changes in signaling relative to Compound of Formula (I) alone ([2]; COLO 741, with FGF2 100 ng/ml, two hours): minimal changes
pIC50 [3]: 8.40
pIC50 [4]: 6.52
